{"source": "ChEMBL document CHEMBL5055685", "about": "“Discovery of the First Potent IDO1/IDO2 Dual Inhibitors: A Promising Strategy for Cancer Immunotherapy” (J Med Chem, 2021)", "key": {"[1]": {"assay": "AUC (0 to t) in Sprague-Dawley rat at 5 mg/kg, iv", "type": "ADME, organism-based", "design": "dose 5 mg/kg, route iv", "conditions": "in vivo"}, "[2]": {"assay": "Tmax in Sprague-Dawley rat at 50 mg/kg, po", "type": "ADME, organism-based", "conditions": "in vivo"}, "[3]": {"assay": "Half life in Sprague-Dawley rat at 50 mg/kg, po", "type": "ADME, organism-based", "conditions": "in vivo"}, "[4]": {"assay": "Clearance in rat liver microsomes", "type": "ADME, Microsome", "conditions": "read-out: CLH"}, "Mus musculus [5]": {"test_system": "Mus musculus", "assay": "In vivo inhibition of IDO1/IDO2 in BALB/c mouse xenografted with human HCT-116 cells assessed as increase in tryptophan level in serum by […]", "type": "functional, organism-based"}, "HCT-116 [6]": {"test_system": "HCT-116", "assay": "Antitumor immunity in BALB/c mouse xenografted with human HCT-116 cells assessed as increase in IL-2 in serum by […]", "type": "functional, cell-based"}, "HCT-116 [7]": {"test_system": "HCT-116", "assay": "Antitumor immunity in BALB/c mouse xenografted with human HCT-116 cells assessed as necrotic Treg cells in spleen by propidium iodide staining based flow cytometry analysis (reference value: 1.47 %)", "type": "functional"}, "[8]": {"target": "Indoleamine 2,3-dioxygenase 1 (Mus musculus) (UniProt P28776)", "sequence (P28776 whole entry, looked up)": "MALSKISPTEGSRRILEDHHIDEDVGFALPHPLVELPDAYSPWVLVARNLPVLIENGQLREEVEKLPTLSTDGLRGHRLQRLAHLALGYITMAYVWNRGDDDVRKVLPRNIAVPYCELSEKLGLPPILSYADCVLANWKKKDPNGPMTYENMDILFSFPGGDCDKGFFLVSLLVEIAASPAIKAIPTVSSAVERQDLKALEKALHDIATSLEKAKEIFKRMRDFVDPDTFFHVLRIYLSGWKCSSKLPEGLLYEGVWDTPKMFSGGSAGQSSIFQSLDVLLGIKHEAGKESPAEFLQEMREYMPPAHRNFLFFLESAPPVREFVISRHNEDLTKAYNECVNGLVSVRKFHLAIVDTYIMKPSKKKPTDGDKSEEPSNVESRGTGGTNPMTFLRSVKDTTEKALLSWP", "assay": "In vivo inhibition of IDO1 in BALB/c mouse xenografted with human HCT-116 cells assessed as suppression of IDO1 expression in tumor by immunohistochemical assay", "type": "functional, organism-based"}, "Mus musculus [9]": {"test_system": "Mus musculus", "assay": "In vivo inhibition of IDO1/IDO2 in BALB/c mouse xenografted with human HCT-116 cells assessed as downregulation of Foxp3 expression in tumor by immunohistochemical assay", "type": "functional, organism-based"}, "[10]": {"target": "CDC7/DBF4 (Cell division cycle 7-related protein kinase/Activator of S phase kinase) (Homo sapiens) (UniProt Q9UBU7+O00311)", "assay": "Inhibition of CDC7/DBF4 (unknown origin) at 1 uM", "type": "protein-complex assay"}, "[11]": {"target": "Cyclin-dependent kinase 1/cyclin B1 (Homo sapiens) (UniProt P06493+P14635)", "assay": "Inhibition of CDK1/cyclinB (unknown origin) at 1 uM", "type": "protein-complex assay"}, "[12]": {"target": "CDK3/Cyclin E (Homo sapiens) (UniProt P24864+Q00526)", "assay": "Inhibition of CDK3/cyclin-E (unknown origin) at 1 uM", "type": "protein-complex assay"}, "[13]": {"target": "CDK4/Cyclin D3 (Homo sapiens) (UniProt P11802+P30281)", "assay": "Inhibition of CDK4/cyclin-D3 (unknown origin) at 1 uM", "type": "protein-complex assay"}, "[14]": {"target": "Cyclin-dependent kinase 5/CDK5 activator 1 (Homo sapiens) (UniProt Q00535+Q15078)", "assay": "Inhibition of CDK5/p35 (unknown origin) at 1 uM", "type": "protein-complex assay"}, "[15]": {"target": "CDK9/Cyclin K (Homo sapiens) (UniProt P50750+O75909)", "assay": "Inhibition of CDK9/cyclin-K (unknown origin) at 1 uM", "type": "protein-complex assay"}, "[16]": {"target": "Casein kinase I isoform gamma-1 (Homo sapiens) (UniProt Q9HCP0)", "sequence (Q9HCP0 whole entry, looked up, canonical isoform)": "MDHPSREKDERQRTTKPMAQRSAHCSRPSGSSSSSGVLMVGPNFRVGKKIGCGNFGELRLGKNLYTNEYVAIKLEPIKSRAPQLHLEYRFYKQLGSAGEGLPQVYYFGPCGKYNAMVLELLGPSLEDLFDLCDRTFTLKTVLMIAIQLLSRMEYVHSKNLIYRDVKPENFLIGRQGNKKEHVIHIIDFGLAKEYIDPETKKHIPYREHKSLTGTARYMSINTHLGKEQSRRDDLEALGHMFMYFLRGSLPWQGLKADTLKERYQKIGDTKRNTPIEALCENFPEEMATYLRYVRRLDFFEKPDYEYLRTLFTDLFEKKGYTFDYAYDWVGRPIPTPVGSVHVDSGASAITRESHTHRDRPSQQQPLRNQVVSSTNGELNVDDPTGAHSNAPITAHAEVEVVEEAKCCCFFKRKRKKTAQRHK", "assay": "Inhibition of CK1gamma1 (unknown origin) at 1 uM"}, "[17]": {"target": "Casein kinase II subunit alpha (Homo sapiens) (UniProt P68400)", "assay": "Inhibition of CK2A (unknown origin) at 1 uM"}, "[18]": {"target": "Epithelial discoidin domain-containing receptor 1 (Homo sapiens) (UniProt Q08345)", "assay": "Inhibition of DDR1 (unknown origin) at 1 uM"}, "[19]": {"target": "Ephrin type-A receptor 8 (Homo sapiens) (UniProt P29322)", "assay": "Inhibition of EPHA8 (unknown origin) at 1 uM"}, "[20]": {"target": "Ephrin type-B receptor 2 (Homo sapiens) (UniProt P29323)", "assay": "Inhibition of EPHB2 (unknown origin) at 1 uM"}, "[21]": {"target": "Vascular endothelial growth factor receptor 1 (Homo sapiens) (UniProt P17948)", "assay": "Inhibition of FLT1 (unknown origin) at 1 uM"}, "[22]": {"target": "G protein-coupled receptor kinase 3 (Homo sapiens) (UniProt P35626)", "sequence (P35626 whole entry)": "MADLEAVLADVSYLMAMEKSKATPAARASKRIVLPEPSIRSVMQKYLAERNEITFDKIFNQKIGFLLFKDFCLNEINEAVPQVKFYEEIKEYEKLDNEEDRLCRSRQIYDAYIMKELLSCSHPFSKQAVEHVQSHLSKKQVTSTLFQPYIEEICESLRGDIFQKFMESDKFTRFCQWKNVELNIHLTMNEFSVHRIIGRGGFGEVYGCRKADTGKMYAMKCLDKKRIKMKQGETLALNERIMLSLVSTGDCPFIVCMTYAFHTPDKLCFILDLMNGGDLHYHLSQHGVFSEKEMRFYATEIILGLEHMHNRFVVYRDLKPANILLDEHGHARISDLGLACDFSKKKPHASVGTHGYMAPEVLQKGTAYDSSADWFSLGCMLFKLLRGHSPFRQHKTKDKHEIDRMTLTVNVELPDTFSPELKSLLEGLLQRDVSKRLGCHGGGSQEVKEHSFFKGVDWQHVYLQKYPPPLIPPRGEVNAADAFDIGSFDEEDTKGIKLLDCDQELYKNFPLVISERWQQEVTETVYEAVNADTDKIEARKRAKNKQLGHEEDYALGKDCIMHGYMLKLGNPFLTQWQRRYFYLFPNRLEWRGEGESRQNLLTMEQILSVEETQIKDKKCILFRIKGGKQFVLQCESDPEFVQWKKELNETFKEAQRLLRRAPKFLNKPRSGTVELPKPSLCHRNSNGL", "assay": "Inhibition of GRK3 (unknown origin) at 1 uM"}, "[23]": {"target": "Serine/threonine-protein kinase haspin (Homo sapiens) (UniProt Q8TF76)", "assay": "Inhibition of haspin (unknown origin) at 1 uM"}, "[24]": {"target": "Inhibitor of nuclear factor kappa-B kinase subunit beta (Homo sapiens) (UniProt O14920)", "assay": "Inhibition of IKKbeta (unknown origin) at 1 uM"}, "[25]": {"target": "Mitogen-activated protein kinase kinase kinase kinase 5 (Homo sapiens) (UniProt Q9Y4K4)", "assay": "Inhibition of KHS (unknown origin) at 1 uM"}, "[26]": {"target": "LIM domain kinase 1 (Homo sapiens) (UniProt P53667)", "assay": "Inhibition of LIMK1 (unknown origin) at 1 uM"}, "[27]": {"target": "Dual specificity mitogen-activated protein kinase kinase 2 (Homo sapiens) (UniProt P36507)", "assay": "Inhibition of MEK2 (unknown origin) at 1 uM"}, "Homo sapiens": {"organism": "Homo sapiens", "assay": "Inhibition of MLCK (unknown origin) at 1 uM"}, "[28]": {"target": "Myosin light chain kinase 2, skeletal/cardiac muscle (Homo sapiens) (UniProt Q9H1R3)", "assay": "Inhibition of MLCK2 (unknown origin) at 1 uM"}, "[29]": {"target": "MAP kinase-interacting serine/threonine-protein kinase 1 (Homo sapiens) (UniProt Q9BUB5)", "assay": "Inhibition of MNK1 (unknown origin) at 1 uM"}, "[30]": {"target": "Serine/threonine-protein kinase Nek1 (Homo sapiens) (UniProt Q96PY6)", "sequence (Q96PY6 whole entry)": "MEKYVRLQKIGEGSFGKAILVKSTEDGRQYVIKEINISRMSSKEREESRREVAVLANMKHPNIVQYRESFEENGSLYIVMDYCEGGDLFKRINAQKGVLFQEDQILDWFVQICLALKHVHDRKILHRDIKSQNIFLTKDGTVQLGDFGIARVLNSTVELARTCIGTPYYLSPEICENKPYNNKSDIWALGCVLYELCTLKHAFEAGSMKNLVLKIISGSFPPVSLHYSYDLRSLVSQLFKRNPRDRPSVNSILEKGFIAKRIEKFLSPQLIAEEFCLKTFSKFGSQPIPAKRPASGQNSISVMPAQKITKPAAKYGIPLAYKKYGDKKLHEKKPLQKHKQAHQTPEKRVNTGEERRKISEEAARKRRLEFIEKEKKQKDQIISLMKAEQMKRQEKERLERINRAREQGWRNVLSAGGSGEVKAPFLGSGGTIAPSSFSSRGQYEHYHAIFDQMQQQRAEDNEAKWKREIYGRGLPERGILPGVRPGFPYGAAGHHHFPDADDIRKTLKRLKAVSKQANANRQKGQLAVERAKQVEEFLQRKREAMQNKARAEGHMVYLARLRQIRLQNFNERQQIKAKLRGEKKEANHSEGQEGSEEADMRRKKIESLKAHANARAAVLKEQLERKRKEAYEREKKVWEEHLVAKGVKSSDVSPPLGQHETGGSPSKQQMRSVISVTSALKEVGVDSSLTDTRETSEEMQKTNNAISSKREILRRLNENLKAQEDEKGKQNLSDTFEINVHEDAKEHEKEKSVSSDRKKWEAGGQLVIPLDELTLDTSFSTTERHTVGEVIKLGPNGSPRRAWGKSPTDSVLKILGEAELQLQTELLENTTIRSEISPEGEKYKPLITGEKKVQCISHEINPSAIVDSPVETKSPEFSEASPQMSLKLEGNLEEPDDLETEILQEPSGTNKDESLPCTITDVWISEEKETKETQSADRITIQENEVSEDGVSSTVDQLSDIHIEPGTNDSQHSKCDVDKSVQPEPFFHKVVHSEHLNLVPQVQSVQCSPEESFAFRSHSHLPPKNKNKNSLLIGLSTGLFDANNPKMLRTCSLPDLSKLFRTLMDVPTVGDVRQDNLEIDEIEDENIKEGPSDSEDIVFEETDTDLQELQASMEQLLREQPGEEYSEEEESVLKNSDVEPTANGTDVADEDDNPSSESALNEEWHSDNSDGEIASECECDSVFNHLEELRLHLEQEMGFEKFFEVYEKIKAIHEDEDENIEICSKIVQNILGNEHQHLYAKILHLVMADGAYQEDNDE", "assay": "Inhibition of NEK1 (unknown origin) at 1 uM"}, "[31]": {"target": "Serine/threonine-protein kinase Nek2 (Homo sapiens) (UniProt P51955)", "assay": "Inhibition of NEK2 (unknown origin) at 1 uM"}, "[32]": {"target": "Serine/threonine-protein kinase PAK 3 (Homo sapiens) (UniProt O75914)", "assay": "Inhibition of PAK3 (unknown origin) at 1 uM"}, "[33]": {"target": "Serine/threonine-protein kinase pim-3 (Homo sapiens) (UniProt Q86V86)", "assay": "Inhibition of PIM3 (unknown origin) at 1 uM"}, "[34]": {"target": "Serine/threonine-protein kinase N3 (Homo sapiens) (UniProt Q6P5Z2)", "assay": "Inhibition of PKN3 (unknown origin) at 1 uM"}, "[35]": {"target": "Serine/threonine-protein kinase PLK1 (Homo sapiens) (UniProt P53350)", "assay": "Inhibition of PLK1 (unknown origin) at 1 uM"}, "[36]": {"target": "Receptor-interacting serine/threonine-protein kinase 2 (Homo sapiens) (UniProt O43353)", "assay": "Inhibition of RIPK2 (unknown origin) at 1 uM"}, "[37]": {"target": "Serine/threonine-protein kinase 33 (Homo sapiens) (UniProt Q9BYT3)", "sequence (Q9BYT3 whole entry, looked up)": "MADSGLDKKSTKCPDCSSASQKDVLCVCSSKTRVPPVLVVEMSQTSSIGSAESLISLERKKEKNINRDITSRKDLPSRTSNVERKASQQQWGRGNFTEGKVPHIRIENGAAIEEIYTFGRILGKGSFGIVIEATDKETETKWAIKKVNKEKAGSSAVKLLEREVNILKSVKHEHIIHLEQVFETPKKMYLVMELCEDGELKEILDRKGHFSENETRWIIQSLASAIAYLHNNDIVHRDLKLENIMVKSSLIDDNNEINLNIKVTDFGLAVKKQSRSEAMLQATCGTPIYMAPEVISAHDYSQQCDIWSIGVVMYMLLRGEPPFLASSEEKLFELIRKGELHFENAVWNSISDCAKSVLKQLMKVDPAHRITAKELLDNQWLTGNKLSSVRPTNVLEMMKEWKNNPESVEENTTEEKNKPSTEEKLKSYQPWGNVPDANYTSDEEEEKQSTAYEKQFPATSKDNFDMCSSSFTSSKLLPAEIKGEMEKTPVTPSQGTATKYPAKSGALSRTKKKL", "assay": "Inhibition of STK33 (unknown origin) at 1 uM"}, "[38]": {"target": "Serine/threonine-protein kinase TAO3 (Homo sapiens) (UniProt Q9H2K8)", "sequence (Q9H2K8 whole entry)": "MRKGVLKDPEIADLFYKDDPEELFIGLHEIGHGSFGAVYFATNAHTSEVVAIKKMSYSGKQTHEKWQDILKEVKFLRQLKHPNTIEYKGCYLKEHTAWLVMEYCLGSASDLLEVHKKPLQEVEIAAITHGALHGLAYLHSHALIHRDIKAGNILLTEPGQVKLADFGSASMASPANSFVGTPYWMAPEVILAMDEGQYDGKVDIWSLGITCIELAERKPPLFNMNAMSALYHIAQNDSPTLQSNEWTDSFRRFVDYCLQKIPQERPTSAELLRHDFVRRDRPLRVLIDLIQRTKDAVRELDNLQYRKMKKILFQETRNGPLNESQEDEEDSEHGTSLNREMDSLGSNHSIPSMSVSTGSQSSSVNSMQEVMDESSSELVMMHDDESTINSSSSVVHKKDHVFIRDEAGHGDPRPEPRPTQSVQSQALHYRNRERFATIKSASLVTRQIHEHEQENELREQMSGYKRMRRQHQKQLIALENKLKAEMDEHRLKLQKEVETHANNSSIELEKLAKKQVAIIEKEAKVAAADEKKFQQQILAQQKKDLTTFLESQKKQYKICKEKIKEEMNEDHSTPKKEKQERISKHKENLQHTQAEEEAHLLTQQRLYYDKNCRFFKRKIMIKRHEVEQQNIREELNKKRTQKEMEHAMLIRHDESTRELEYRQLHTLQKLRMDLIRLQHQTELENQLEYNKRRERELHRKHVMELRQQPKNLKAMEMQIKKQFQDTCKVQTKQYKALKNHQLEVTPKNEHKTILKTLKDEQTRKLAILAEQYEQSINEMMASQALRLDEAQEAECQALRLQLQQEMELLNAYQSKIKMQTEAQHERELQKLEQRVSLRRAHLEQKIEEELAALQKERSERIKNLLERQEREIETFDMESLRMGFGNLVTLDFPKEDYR", "assay": "Inhibition of TAOK3 (unknown origin) at 1 uM"}, "[39]": {"target": "High affinity nerve growth factor receptor (Homo sapiens) (UniProt P04629)", "assay": "Inhibition of TRKA (unknown origin) at 1 uM"}, "[40]": {"target": "Tau-tubulin kinase 2 (Homo sapiens) (UniProt Q6IQ55)", "assay": "Inhibition of TTBK2 (unknown origin) at 1 uM"}, "[41]": {"target": "Serine/threonine-protein kinase VRK2 (Homo sapiens) (UniProt Q86Y07)", "sequence (Q86Y07 whole entry)": "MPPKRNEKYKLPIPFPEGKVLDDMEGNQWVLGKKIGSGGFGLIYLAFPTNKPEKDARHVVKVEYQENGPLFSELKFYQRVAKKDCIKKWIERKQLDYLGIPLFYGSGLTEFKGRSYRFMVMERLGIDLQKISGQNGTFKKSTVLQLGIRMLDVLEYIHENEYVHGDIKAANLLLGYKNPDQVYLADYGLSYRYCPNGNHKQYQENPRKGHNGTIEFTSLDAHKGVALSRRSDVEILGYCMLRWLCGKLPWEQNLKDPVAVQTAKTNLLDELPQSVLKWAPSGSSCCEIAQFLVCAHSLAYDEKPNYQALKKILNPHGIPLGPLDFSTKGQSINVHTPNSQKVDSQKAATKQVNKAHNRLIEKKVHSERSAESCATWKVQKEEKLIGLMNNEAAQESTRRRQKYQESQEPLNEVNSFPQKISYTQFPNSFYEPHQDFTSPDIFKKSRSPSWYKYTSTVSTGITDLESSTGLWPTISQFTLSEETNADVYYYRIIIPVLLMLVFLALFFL", "assay": "Inhibition of VRK2 (unknown origin) at 1 uM"}, "[42]": {"target": "Tyrosine-protein kinase Yes (Homo sapiens) (UniProt P07947)", "assay": "Inhibition of YES (unknown origin) at 1 uM"}}, "note": "Active and inactive are the calls of the source. The rule behind the calls is not given here."}
{"compound": "OCCOCc1cn(CCNc2nonc2/C(=N/O)Nc2ccc(F)c(Br)c2)nn1", "values": [{"measurement": "AUC(0-t)", "setting": "[1]", "result": 3040, "unit": "ng·h/mL"}, {"measurement": "Tmax", "setting": "[2]", "result": 1.3, "unit": "h"}, {"measurement": "half-life", "setting": "[3]", "result": 1.9, "unit": "h"}, {"measurement": "microsomal CLint", "setting": "[4]", "result": 65.3, "unit": "µL/min/mg"}, {"measurement": "inhibition", "setting": "Mus musculus [5]", "result": "Active"}, {"measurement": "Activity", "setting": "HCT-116 [6]", "result": "Active"}, {"measurement": "Activity", "setting": "HCT-116 [7]", "result": 0.78, "unit": "%"}, {"measurement": "inhibition", "setting": "[8]", "result": "Active"}, {"measurement": "inhibition", "setting": "Mus musculus [9]", "result": "Active"}, {"measurement": "inhibition", "setting": "[10]", "result": "inactive"}, {"measurement": "inhibition", "setting": "[11]", "result": "inactive"}, {"measurement": "inhibition", "setting": "[12]", "result": "inactive"}, {"measurement": "inhibition", "setting": "[13]", "result": "inactive"}, {"measurement": "inhibition", "setting": "[14]", "result": "inactive"}, {"measurement": "inhibition", "setting": "[15]", "result": "inactive"}, {"measurement": "inhibition", "setting": "[16]", "result": "inactive"}, {"measurement": "inhibition", "setting": "[17]", "result": "inactive"}, {"measurement": "inhibition", "setting": "[18]", "result": "inactive"}, {"measurement": "inhibition", "setting": "[19]", "result": "inactive"}, {"measurement": "inhibition", "setting": "[20]", "result": "inactive"}, {"measurement": "inhibition", "setting": "[21]", "result": "inactive"}, {"measurement": "inhibition", "setting": "[22]", "result": "inactive"}, {"measurement": "inhibition", "setting": "[23]", "result": "inactive"}, {"measurement": "inhibition", "setting": "[24]", "result": "inactive"}, {"measurement": "inhibition", "setting": "[25]", "result": "inactive"}, {"measurement": "inhibition", "setting": "[26]", "result": "inactive"}, {"measurement": "inhibition", "setting": "[27]", "result": "inactive"}, {"measurement": "inhibition", "setting": "Homo sapiens", "result": "inactive"}, {"measurement": "inhibition", "setting": "[28]", "result": "inactive"}, {"measurement": "inhibition", "setting": "[29]", "result": "inactive"}, {"measurement": "inhibition", "setting": "[30]", "result": "inactive"}, {"measurement": "inhibition", "setting": "[31]", "result": "inactive"}, {"measurement": "inhibition", "setting": "[32]", "result": "inactive"}, {"measurement": "inhibition", "setting": "[33]", "result": "inactive"}, {"measurement": "inhibition", "setting": "[34]", "result": "inactive"}, {"measurement": "inhibition", "setting": "[35]", "result": "inactive"}, {"measurement": "inhibition", "setting": "[36]", "result": "inactive"}, {"measurement": "inhibition", "setting": "[37]", "result": "inactive"}, {"measurement": "inhibition", "setting": "[38]", "result": "inactive"}, {"measurement": "inhibition", "setting": "[39]", "result": "inactive"}, {"measurement": "inhibition", "setting": "[40]", "result": "inactive"}, {"measurement": "inhibition", "setting": "[41]", "result": "inactive"}, {"measurement": "inhibition", "setting": "[42]", "result": "inactive"}]}
